Assay results: patent publication US20240252488A1 (KOREA RESEARCH INSTITUTE OF CHEMICAL TECHNOLOGY, priority 2020, published 2024)

Key:
FADD−/− Jurkat cells = test: Necroptosis inhibition assay, TNF-α-induced necroptosis (CellTiter-Glo 2.0); type: cell-based, human; details: TNF-α 15 ng/mL; for Necroptosis inhibition assay (Rescue %) 1 μM: compound 1 μM; for Necroptosis inhibition assay (Rescue %) 10 μM: compound 10 μM; for Necroptosis inhibition assay (Rescue %) 1.1 μM: compound 1.1 µM
Procedure, shortened: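 Cells at 5.0×10^5 cells/mL were pretreated with compound (final 0.1, 1 and 10 μM) for 30 minutes at room temperature, then given TNF-α at 15 ng/mL final. After 20 to 24 hours at 37° C, 5% CO2, viability was read as ATP luminescence to calculate cytotoxicity and necroptosis inhibition rate.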

MLKL [1] = target: T1, MLKL (Homo sapiens, UniProt Q8NB16); test: MLKL degradation assay in HepG2 cell line (western blot); type: cell-based; parameters: endogenous in cells; host or cells: HepG2 or HaCaT; details: cell line not given; for Degradation assay (Degradation %) 1 μM: compound 1 μM; for Degradation assay (Degradation %) 10 μM: compound 10 μM
T1 sequence (Q8NB16 1-471): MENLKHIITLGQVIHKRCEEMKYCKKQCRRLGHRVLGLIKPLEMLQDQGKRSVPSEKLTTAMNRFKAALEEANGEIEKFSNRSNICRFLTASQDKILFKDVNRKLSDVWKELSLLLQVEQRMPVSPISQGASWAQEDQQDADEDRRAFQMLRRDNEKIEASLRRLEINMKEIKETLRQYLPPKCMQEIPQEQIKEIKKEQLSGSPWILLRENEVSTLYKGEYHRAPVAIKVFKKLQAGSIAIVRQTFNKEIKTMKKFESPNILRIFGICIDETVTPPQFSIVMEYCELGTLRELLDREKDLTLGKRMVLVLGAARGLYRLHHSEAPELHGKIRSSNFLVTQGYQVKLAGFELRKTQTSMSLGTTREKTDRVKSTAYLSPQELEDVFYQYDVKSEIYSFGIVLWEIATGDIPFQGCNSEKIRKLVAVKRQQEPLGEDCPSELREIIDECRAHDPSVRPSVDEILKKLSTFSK
Procedure, shortened: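 HepG2 cells were exposed to compound at a final 1 or 10 μM for 20-24 hours at 37 °C, 5% CO2. RIPA lysates were normalized by BCA assay, 10-15 μg protein resolved by SDS-PAGE, and MLKL levels detected by western blot with chemiluminescence.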

MLKL [2] = target: T1, MLKL; test: Measurement of binding affinity with MLKL receptor (competitive binding assay, Kd); parameters: made in house; host or cells: HEK 293 cell line (T7 phage in E. coli BL21-derived host is also described)
Procedure, shortened: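 Kd comes from a bead-based competition format: compound-dependent loss of DNA-tagged, HEK 293-expressed MLKL capture, measured as eluate kinase by qPCR. Final DMSO is 0.9%.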

Row | SMILES | Necroptosis inhibition assay (Rescue %) 1 μM (FADD−/− Jurkat cells) [%] | Necroptosis inhibition assay (Rescue %) 10 μM (FADD−/− Jurkat cells) [%] | Degradation assay (Degradation %) 1 μM (MLKL [1]) [%] | Kd (MLKL [2]) [nM] | Necroptosis inhibition assay (Rescue %) 1.1 μM (FADD−/− Jurkat cells) | Degradation assay (Degradation %) 10 μM (MLKL [1]) [%]
1 | Nc1ncc(-c2cnn(C3CCN(C(=O)c4cn(C5CCN(C(=O)CNc6cccc7c6C(=O)N(C6CCC(=O)NC6=O)C7=O)CC5)cn4)CC3)c2)nc1C(=O)O[C@@H](C(=O)Nc1ccc(F)cc1)c1ccccc1 (stereo partly drawn) [TDH-356, (R)-2-((4-fluorophenyl)amino)-2-oxo-1-phenylethyl 3-amino-6-(1-(1-(1-(1-((2-(2,6-dioxopiperidin-3-yl)-1,3-dioxoisoindolin-4-yl)glycyl)piperidin-4-yl)-1H-imidazole-4-carbonyl)piperidin-4-yl)-1H-pyrazol-4-yl)pyrazine-2-carboxylate] | 5.27 | 0.50 | 22.83 | 4.6 |  | 
2 | Nc1ncc(-c2cnn(C3CCN(CCCN4CCN(C(=O)CNc5ccc6c(c5)C(=O)N(C5CCC(=O)NC5=O)C6=O)CC4)CC3)c2)nc1C(=O)O[C@@H](C(=O)Nc1ccc(F)cc1)c1ccccc1 (stereo partly drawn) [TDH-357, (R)-2-((4-fluorophenyl)amino)-2-oxo-1-phenylethyl 3-amino-6-(1-(1-(3-(4-((2-(2,6-dioxopiperidin-3-yl)-1,3-dioxoisoindolin-5-yl)glycyl)piperazin-1-yl)propyl)piperidin-4-yl)-1H-pyrazol-4-yl)pyrazine-2-carboxylate] |  |  | 84.79 | 0.55 | 82.13 (1.1µM) % | 76.36
3 | Nc1ncc(-c2cnn(C3CCN(CCCN4CCN(C(=O)COc5ccc6c(c5)C(=O)N(C5CCC(=O)NC5=O)C6=O)CC4)CC3)c2)nc1C(=O)O[C@@H](C(=O)Nc1ccc(F)cc1)c1ccccc1 (stereo partly drawn) [TDH-358, (R)-2-((4-fluorophenyl)amino)-2-oxo-1-phenylethyl 3-amino-6-(1-(1-(3-(4-(2-((2-(2,6-dioxopiperidin-3-yl)-1,3-dioxoisoindolin-5-yl)oxy)acetyl)piperazin-1-yl)propyl)piperidin-4-yl)-1H-pyrazol-4-yl)pyrazine-2-carboxylate] |  | 39.65 | 91.6 | 0.5 | 100.10 (1.1 µM) % | 86.73
4 | Nc1ncc(-c2cnn([C@@H]3CCN(CC4CCN(C(=O)COc5ccc6c(c5)C(=O)N(C5CCC(=O)NC5=O)C6=O)CC4)C3)c2)nc1C(=O)O[C@@H](C(=O)Nc1ccc(F)cc1)c1ccccc1 (stereo partly drawn) [TDH-359, (R)-2-((4-fluorophenyl)amino)-2-oxo-1-phenylethyl 3-amino-6-(1-((3R)-1-((1-(2-((2-(2,6-dioxopiperidin-3-yl)-1,3-dioxoisoindolin-5-yl)oxy)acetyl)piperidin-4-yl)methyl)pyrrolidin-3-yl)-1H-pyrazol-4-yl)pyrazine-2-carboxylate] |  | 40.02 | 92.98 | 1.7 | 67.68 (1.1 µM) % | 85.17
5 | Nc1ncc(-c2cnn(C3CN(CC4CCN(C(=O)CNc5ccc6c(c5)C(=O)N(C5CCC(=O)NC5=O)C6=O)CC4)C3)c2)nc1C(=O)O[C@@H](C(=O)Nc1ccc(F)cc1)c1ccccc1 (stereo partly drawn) [TDH-360, (R)-2-((4-fluorophenyl)amino)-2-oxo-1-phenylethyl 3-amino-6-(1-(1-((1-((2-(2,6-dioxopiperidin-3-yl)-1,3-dioxoisoindolin-5-yl)glycyl)piperidin-4-yl)methyl)azetidin-3-yl)-1H-pyrazol-4-yl)pyrazine-2-carboxylate] |  | 38.05 | 87.25 | 3.3 | 55.49 (1.1µM) % | 73.06
6 | Nc1ncc(-c2cnn(C3CCN(C(=O)c4cn(C5CCN(C(=O)CNc6ccc7c(c6)C(=O)N(C6CCC(=O)NC6=O)C7=O)CC5)cn4)CC3)c2)nc1C(=O)O[C@@H](C(=O)Nc1ccc(F)cc1)c1ccccc1 (stereo partly drawn) [TDH-361, (R)-2-((4-fluorophenyl)amino)-2-oxo-1-phenylethyl 3-amino-6-(1-(1-(1-(1-((2-(2,6-dioxopiperidin-3-yl)-1,3-dioxoisoindolin-5-yl)glycyl)piperidin-4-yl)-1H-imidazole-4-carbonyl)piperidin-4-yl)-1H-pyrazol-4-yl)pyrazine-2-carboxylate] | 19.10 | 10.01 | 51.1 | 1.7 |  | 48.59
7 | Nc1ncc(-c2cnn(C3CCN(C(=O)c4cn(C5CCN(C(=O)C6CCN(c7cccc8c7C(=O)N(C7CCC(=O)NC7=O)C8=O)CC6)CC5)cn4)CC3)c2)nc1C(=O)O[C@@H](C(=O)Nc1ccc(F)cc1)c1ccccc1 (stereo partly drawn) [TDH-362, (R)-2-((4-fluorophenyl)amino)-2-oxo-1-phenylethyl 3-amino-6-(1-(1-(1-(1-(1-(2-(2,6-dioxopiperidin-3-yl)-1,3-dioxoisoindolin-4-yl)piperidine-4-carbonyl)piperidin-4-yl)-1H-imidazole-4-carbonyl)piperidin-4-yl)-1H-pyrazol-4-yl)pyrazine-2-carboxylate] | 17.89 | 16.12 | 69.87 | 5.5 |  | 69.78
8 | Nc1ncc(-c2cnn(C3CCN(C(=O)c4cn(C5CCN(C(=O)C6CCN(c7ccc8c(c7)C(=O)N(C7CCC(=O)NC7=O)C8=O)CC6)CC5)cn4)CC3)c2)nc1C(=O)O[C@@H](C(=O)Nc1ccc(F)cc1)c1ccccc1 (stereo partly drawn) [TDH-363, (R)-2-((4-fluorophenyl)amino)-2-oxo-1-phenylethyl 3-amino-6-(1-(1-(1-(1-(1-(2-(2,6-dioxopiperidin-3-yl)-1,3-dioxoisoindolin-5-yl)piperidine-4-carbonyl)piperidin-4-yl)-1H-imidazole-4-carbonyl)piperidin-4-yl)-1H-pyrazol-4-yl)pyrazine-2-carboxylate] | 32.65 | 27.11 | 76.83 | 2.9 |  | 69.84
9 | Nc1ncc(-c2cnn(C3CCN(C(=O)c4cn(C5CCN(c6cccc7c6C(=O)N(C6CCC(=O)NC6=O)C7=O)CC5)cn4)CC3)c2)nc1C(=O)O[C@@H](C(=O)Nc1ccc(F)cc1)c1ccccc1 (stereo partly drawn) [TDH-364, (R)-2-((4-fluorophenyl)amino)-2-oxo-1-phenylethyl 3-amino-6-(1-(1-(1-(1-(2-(2,6-dioxopiperidin-3-yl)-1,3-dioxoisoindolin-4-yl)piperidin-4-yl)-1H-imidazole-4-carbonyl)piperidin-4-yl)-1H-pyrazol-4-yl)pyrazine-2-carboxylate] | 22.41 | 17.66 | 72.07 | 5.3 |  | 65.89
10 | Nc1ncc(-c2cnn(C3CCN(C(=O)c4cn(C5CCN(c6ccc7c(c6)C(=O)N(C6CCC(=O)NC6=O)C7=O)CC5)cn4)CC3)c2)nc1C(=O)O[C@@H](C(=O)Nc1ccc(F)cc1)c1ccccc1 (stereo partly drawn) [TDH-365, (R)-2-((4-fluorophenyl)amino)-2-oxo-1-phenylethyl 3-amino-6-(1-(1-(1-(1-(2-(2,6-dioxopiperidin-3-yl)-1,3-dioxoisoindolin-5-yl)piperidin-4-yl)-1H-imidazole-4-carbonyl)piperidin-4-yl)-1H-pyrazol-4-yl)pyrazine-2-carboxylate] | 19.16 | 16.51 | 72.59 | 3.9 |  | 82.21
11 | Nc1ncc(-c2cnn(C3CCN(CCC4CCN(C(=O)CC5CCN(c6cccc7c6C(=O)N(C6CCC(=O)NC6=O)C7=O)CC5)CC4)CC3)c2)nc1C(=O)O[C@@H](C(=O)Nc1ccc(F)cc1)c1ccccc1 (stereo partly drawn) [TDH-366, (R)-2-((4-fluorophenyl)amino)-2-oxo-1-phenylethyl 3-amino-6-(1-(1-(2-(1-(2-(1-(2-(2,6-dioxopiperidin-3-yl)-1,3-dioxoisoindolin-4-yl)piperidin-4-yl)acetyl)piperidin-4-yl)ethyl)piperidin-4-yl)-1H-pyrazol-4-yl)pyrazine-2-carboxylate] | 45.56 | 22.39 | 87.27 | 1.2 |  | 80.23
